Legend:
[1] = target: T1, 5-hydroxytryptamine 1A (5-HT1A) receptors (Homo sapiens (Human), UniProt P08908); assay: 5-HT1A receptor β-arrestin2 BRET (recruitment); type: cell-based; details: relative to endogenous ligand 5-hydroxytryptamine
Protocol: At the same time, in order to examine the downstream β-arrestin2 signaling pathway mediated by 5-HT1A receptors, on the first day, a 6 cm culture dish was used for transfection with 500 ng of 5-HT1A receptors containing C-terminal seaweed luciferase (5HT1AR-Rluc), 500 ng of G protein-coupled receptor kinase 2 (GRK2), 2500 ng of β-arrestin2 containing N-terminal green fluorescent protein (GFP2-ARRB2), and 14 μL of PEI. The next day, the confluent cells of a 6 cm culture dish were digested and reseeded into a 96-well plate with 100 μL of culture medium added to each well. On the third day, the drugs were added for test. The 96-well plate was taken out from the cell incubator to decant the culture medium, 40 µL of the substrate coelenterazine 400a (final concentration of 5 μM) was added to each well, and then 20 μL of different drugs were added sequentially from left to right to ensure that the final concentration of the drug decreased gradually from bottom to top, with two replicates per treatment. Finally, the prepared samples were loaded on machine for test. The machine readout value reflected the recruitment of β-arrestin2 to the membrane or the dissociation of G protein trimer. The former indicated the degree of activation of the β-arrestin2 signaling pathway downstream of the 5-HT1 serotonin 1A receptors, and the latter indicated the degree of activation of the G protein signaling pathway downstream of the serotonin 1A receptors.

[2] = target: T2, dopamine D2 receptors (Homo sapiens (Human), UniProt P14416); assay: Dopamine D2 receptor radioligand competition binding assay ([3H]-Methylspiperone); details: [3H]-Methylspiperone 0.3 to 0.5 nM, 293T membranes; read-out: Affinity Ki
T2 sequence (P14416 whole entry): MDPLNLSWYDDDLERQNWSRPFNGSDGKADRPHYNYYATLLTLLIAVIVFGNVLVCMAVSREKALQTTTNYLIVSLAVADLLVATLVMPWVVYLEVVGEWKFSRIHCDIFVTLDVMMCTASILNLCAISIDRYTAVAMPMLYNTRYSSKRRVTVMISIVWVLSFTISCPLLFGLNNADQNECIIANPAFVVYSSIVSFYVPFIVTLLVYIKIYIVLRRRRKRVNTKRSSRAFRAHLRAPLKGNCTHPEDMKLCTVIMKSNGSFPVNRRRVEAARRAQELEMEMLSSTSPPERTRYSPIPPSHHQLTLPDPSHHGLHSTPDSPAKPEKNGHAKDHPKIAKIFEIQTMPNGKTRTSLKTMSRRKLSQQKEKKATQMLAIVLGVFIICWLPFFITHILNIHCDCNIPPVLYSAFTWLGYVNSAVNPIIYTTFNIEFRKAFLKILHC
Procedure, shortened: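 Membranes from cells transfected with human D2 receptor, PEI-mediated; competition with [3H]-methylspiperone for 2 h at room temperature in the dark.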

[3] = target: T1, 5-hydroxytryptamine 1A (5-HT1A) receptors; assay: 5-HT1A receptor radioligand competition binding assay ([3H]-LSD); details: 293T membranes, read-out: Affinity Ki
Protocol: The affinity of the compounds of the present disclosure for 5-hydroxytryptamine 1A (5-HT1A) receptors was determined by a radioligand competition binding assay.
In the first step, a cell membrane component containing specific 5-HT1A receptors was prepared. […] A vacuum pump was used to suck off the culture medium, 3 mL of lysis buffer was added to each culture dish, and the cells were placed in a 4° C. cold room for 10 minutes. After the cells were detached, the cells were transferred to a 15 mL centrifuge tube and centrifuged at 1500 rpm for 5 minutes at 4° C., and the supernatant was discarded. The cell pellet was transferred to a tissue homogenizer, and 3 mL of lysis buffer was added and fully ground until the cells were broken. Then, cell suspension was equally aliquoted into several EP tubes, centrifuged at 12000 rpm for 5 minutes at 4° C., and the supernatant was discarded. The precipitate was the cell membrane component containing the 5-HT1A receptors.
First, a standard binding buffer was added to the cell membrane component containing the 5-HT1A receptors, and the cell membrane was disrupted and resuspended with an electric tissue homogenizer. 30 μL of membrane protein suspension was added to each well of a 96-well plate. Then, 30 μL of different drugs were added to the 96-well plate sequentially from bottom to top to ensure that the final drug concentrations were 10^−5 M, 10^−6 M, 10^−7 M, 10^−8 M, 10^−9 M, and 0 M, with two replicates per treatment. Next, 30 μL of [^3H]-LSD was added to each well of the 96-well plate. The plate was incubated at room temperature in the dark for 2 hours. Detection was conducted. The machine readout value reflected the amount of [^3H]-LSD bound on the membrane, and after further data processing, the binding affinity Ki values of different compounds for the 5-HT1A receptors were obtained.

[4] = target: T1, 5-hydroxytryptamine 1A (5-HT1A) receptors; assay: 5-HT1A receptor Gαi1 BRET (G protein trimer dissociation); type: cell-based; details: relative to endogenous ligand 5-hydroxytryptamine
[5] = target: T2, dopamine D2 receptors; assay: Dopamine D2 receptor Gαi1 BRET (G protein trimer dissociation); type: cell-based; details: for Emax: relative to endogenous ligand dopamine, read-out: Gαi1 BRET Emax % ± SEM; for EC50: unit printed only in Cariprazine cell, read-out: Gαi1 BRET EC50
Procedure, shortened: (§1)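 G-protein assay: cells co-transfected with D2 receptor, Gαi1-Rluc, Gβ3 and Gγ9-GFP (1 μg each); β-arrestin2 assay: D2-Rluc, GRK2 and GFP2-β-arrestin2 co-transfected. Cells were reseeded after one day and tested on day three. Drug dilution series were added in duplicate with coelenterazine 400a (5 μM final), and the BRET signal was read.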

[6] = target: T2, dopamine D2 receptors; assay: Dopamine D2 receptor β-arrestin2 BRET (recruitment); type: cell-based; details: for Emax: relative to endogenous ligand dopamine, read-out: β-arrestin2 BRET Emax % ± SEM; for EC50: unit printed only in Cariprazine cell, read-out: β-arrestin2 BRET EC50
Procedure, shortened: as §1

T1 sequence (P08908 whole entry): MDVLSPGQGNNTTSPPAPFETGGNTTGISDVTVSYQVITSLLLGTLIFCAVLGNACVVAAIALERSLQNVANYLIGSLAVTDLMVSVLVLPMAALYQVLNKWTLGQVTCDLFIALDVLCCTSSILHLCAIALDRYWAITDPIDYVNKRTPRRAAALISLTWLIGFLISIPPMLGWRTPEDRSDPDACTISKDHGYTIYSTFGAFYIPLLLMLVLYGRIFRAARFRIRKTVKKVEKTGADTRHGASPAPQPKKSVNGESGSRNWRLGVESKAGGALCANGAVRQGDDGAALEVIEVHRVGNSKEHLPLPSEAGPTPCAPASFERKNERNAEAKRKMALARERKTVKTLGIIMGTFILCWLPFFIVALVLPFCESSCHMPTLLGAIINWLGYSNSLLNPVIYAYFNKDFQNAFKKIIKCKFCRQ

Row | Structure (SMILES) | Emax [1] [%] | Ki [2] [nM] | Ki [3] [nM] | Emax [4] [%] | Emax [5] [%] | EC50 [5] [nM] | Emax [6] [%] | EC50 [6] [nM]
1 | COc1cccc2c3c(oc12)CN(CCNC(=O)C1CCC(F)(F)CC1)CC3 [I-A15, 4,4-difluoro-N-(2-(8-methoxy-3,4-dihydrobenzofuro[2,3-c]pyridin-2(1H)-yl)ethyl)cyclohexane-1-carboxamide] | 92 | 272 | 5.43 | 123 |  |  |  | 
2 | COc1cccc2c3c(oc12)CN(CCCCn1ncc(=O)n(C)c1=O)CC3 [I-A22, 2-(4-(8-methoxy-3,4-dihydrobenzofuro[2,3-c]pyridin-2(1H)-yl)butyl)-4-methyl-1,2,4-triazine-3,5(2H,4H)-dione] | 49.6 |  | 0.073 | 59.5 | 79 | 56 | 89 | 86.4
3 | CCOc1cccc2c3c(oc12)CN(CCNC(=O)C1CCCCCC1)CC3 [I-A32, N-(2-(8-ethoxy-3,4-dihydrobenzofuro[2,3-c]pyridin-2(1H)-yl)ethyl)cycloheptanecarboxamide] | 31.6 |  | 2.55 | 102 | 21 | 12.9 | 12 | 233

Reference: patent US20250109139A1, “TRICYCLIC COMPOUND, AND PREPARATION METHOD THEREFOR AND USE THEREOF” (SHANGHAITECH UNIVERSITY, priority 2022, published 2025)
